# In PubChem BioAssay AID1996:
# Conditions: buffer; pH 7.4; 200.0 µM
row,SMILES,solubility kinetic [µg/mL]
1,COc1ccccc1CNC(=O)C(=O)Nc1nccs1,6
2,CCN1CCN(c2oc(/C=C/c3ccccc3)nc2C#N)CC1,42.4
3,CC(CCc1ccccc1)NC(=O)CNC(=O)c1cccs1 (stereo not given),> 47.5
4,CCN(CC(=O)NCc1ccco1)S(=O)(=O)c1ccc(OC)cc1,> 52.9
5,Cc1cc(C(F)(F)F)nc(SCC(=O)NC2CCCCC2)n1,33.2
6,COS(=O)(=O)[O-].Cn1c(-c2ccc3ccccc3n2)[n+](C)c2ccccc21,> 57.8
7,Cc1ccc(NC(=O)CN2CCCC2)cc1.Cl,> 38.2
8,CC1=CC2=NC(=O)/C(=C/c3cccs3)C(=N)N2O1,2.8
9,Cc1ccc2c(c1)sc(=NC(=O)c1cccs1)n2C,< 0.3
10,CC(=O)c1c(C)nc(-c2ccc(OCC(=O)Nc3ccccc3)cc2)n1O,51.3
11,CCOc1ccc(S(=O)(=O)/N=C(/Nc2ccc(C)c(S(=O)(=O)N3CCOCC3)c2)c2ccccc2)cc1,7.9
12,O=C(NCC(=O)N1CCCCC1)c1ccc2ccccc2c1,> 44.5
13,Cl.NCCOc1ccc(C23CC4CC(CC(C4)C2)C3)cc1,> 46.2
14,CC(C)N1C(=O)c2ccccc2N(Cc2ccccc2)S1(=O)=O,5.7
15,COc1ccccc1NC(=S)NC1CCCCCCCCCCC1,< 0.4
16,CCOc1ccccc1OCCC(=O)OCC(=O)c1ccc[nH]1,21.8
17,O=C(NCCCn1ccnc1)c1c(F)cccc1F,38
18,CN(Cc1ccccc1)C(=O)COC(=O)c1cc(=O)c2ccccc2o1,> 52.7
19,CCc1nc(CN2CCN(c3cc(C(F)(F)F)ccn3)CC2)c(C)[nH]1,47.6
20,Cl.Nc1cccc(Nc2ncnc3ccccc23)c1,31.9

row,SMILES,solubility kinetic [µg/mL]
1,CCCCOC(=O)Nc1ccc(S(=O)(=O)Nc2nccs2)cc1,38.1
2,CC(C)CNC(=O)COC(=O)c1ccc(F)cc1Cl,> 43.2
3,COc1ccc(CNC(=O)COc2cc(O)c3c(c2)OC(C)(C)CC3=O)cc1,43.5
4,Cc1ccc(N=C2NC(=O)/C(=C/c3cccnc3)S2)c(C)c1,4.8
5,Cc1ccc(-c2cc(C(=O)N3CCN(c4ccc(O)cc4)CC3)c3ccccc3n2)cc1,6.4
6,COc1ccc(Cl)cc1NC(=S)N1CCN(S(C)(=O)=O)CC1,> 54.6
7,Cl.c1cncc(CNCc2ccco2)c1,> 33.7
8,COc1cnc(-c2cccc(C(F)(F)F)c2)nc1OC,< 0.3
9,CC(NC(=O)CN(C)CC(=O)Nc1ccc(Cl)cc1)c1ccc(F)cc1 (stereo not given),> 56.7
10,Cl.O=C(NCCCN1CCOCC1)c1cc(S(=O)(=O)N2CCOCC2)ccc1Cl,> 70.3
11,O=C1CCC(=O)N1Cc1c(Cl)cccc1Cl,35.5
12,Cc1cc(F)ccc1NC(=O)Cn1c(C)csc1=O,> 42
13,CCC(=O)NCCc1nc2cc(NC(=O)c3ccco3)ccc2n1C,48
14,CN1CCN(CCNC(=O)Nc2ccccc2[N+](=O)[O-])CC1,45.5
15,CCC[N+](CC#CCO)(CC#Cc1ccccc1)CCC.[Br-],> 54.6
16,COc1ccc(OC)c(N=Cc2c(O)[nH]c(=O)[nH]c2=O)c1,7.1
17,Cc1[nH]c2ccc(Br)cc2c(=S)c1C/C=C/Cl,5.3
18,CC(=O)Nc1ccc(NC(=O)c2ccc(-c3ccccc3Cl)o2)cc1,0.5
19,O=C(N/N=C/c1ccccn1)c1cccnc1,> 33.9
20,Cc1onc(-c2c(F)cccc2Cl)c1C(=O)Nc1ccc(S(=O)(=O)N2CCOCC2)cc1,2.3

row,SMILES,solubility kinetic [µg/mL]
1,Cc1ccc(S(=O)(=O)N(C)C)cc1NC(=O)c1cc(-c2ccncc2)nc2ccccc12,10
2,CC(=O)c1c(C)cc(C)c(CSc2ccccn2)c1C,20.5
3,O=C1Cc2ccccc2C(=O)N1c1ccccc1,35.1
4,CCc1ccccc1Cn1c(=O)oc2cccnc21,> 38.1
5,COc1ccc(OC)c(NC(=O)Nc2ccc3c(c2)CCC3)c1,1.3
6,O=C(O)[C@H](Cc1ccccc1)NC(=O)N1CCCCCC1,> 43.6
7,CNC(=S)Nc1ccc(N2CCCC2)c(S(=O)(=O)Nc2ccc(OC)cc2)c1,34.6
8,Cc1cccc(NC(=O)CCN2CCN(C)CC2)c1.Cl,> 44.7
9,Cc1onc(-c2ccccc2)c1C(=O)NCC(O)c1ccccc1 (stereo not given),> 48.4
10,Cc1cc(NC(=O)c2cc(-c3ccc(O)cc3)on2)no1,0.5
11,CN(C)C(=O)Oc1cccc([N+](C)(C)C)c1.COS(=O)(=O)[O-],> 50.2
12,O=c1[nH]c(O)c(C=Nc2cc(F)cc(F)c2)c(=O)[nH]1,2.8
13,N#C/C(=C\c1ccc([N+](=O)[O-])cc1)c1ccccn1,4.7
14,O=C(Nc1ccccc1F)N1CCc2ccccc2C1,> 40.5
15,O=C(Nc1nc2ccccc2[nH]1)c1ccc(Cl)cc1,1.8
16,Cc1c(C(=O)N(C)Cc2ccccc2)oc2c(Cl)cccc12,8.4
17,COc1ccccc1NC(=O)Nc1ccc(N2CCOCC2)cc1,45.8
18,O=C(CC1SCCNC1=O)Nc1ccccc1Cl (stereo not given),38.6
19,CN1CCN(C(=O)c2cc3sc4ccccc4c3s2)CC1,> 47.5
20,Cc1cccc(C)c1NC(=O)Cn1c(=O)c(N2CCCCC2)c(N)n(C)c1=O,> 57.8
